Experimental data reported in ChEMBL document CHEMBL1201862, “PubChem BioAssay data set” (2004).
Several values for one entry are separate records, joined by “and”; a condition that tells them apart may be missing. Equal values may be shown once. Activity calls are given as the source filed them.

How the values were obtained:
[1] = growth suppression of beta-catenin-knockout colon cells, dose response, cell-based, HCT116, human colon tumor (AID 1045); type: functional;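 note: HCT116 colon tumor cells with beta catenin knocked out; cells exposed to compound for 60 hours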
[2] = growth suppression of PTEN-null colon cells, dose response, cell-based, HCT116 PTEN knockout (AID 1047); type: functional;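 note: HCT116 colon tumor cells with PTEN knocked out; cells exposed to compound for 60 hours before readout; potency for loss of cell viability measured by luminescence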
[3] = biological target: T1, Corticotropin-releasing factor receptor 2/Corticotropin-releasing factor-binding protein (Homo sapiens, UniProt P24387+Q13324); test: Dose Response confirmation of uHTS hits for small molecule antagonists of the CRF-binding protein and CRF-R2 receptor complex.; type: functional; settings: read-out: IC50_Mean
T1 sequence (Q13324 whole entry): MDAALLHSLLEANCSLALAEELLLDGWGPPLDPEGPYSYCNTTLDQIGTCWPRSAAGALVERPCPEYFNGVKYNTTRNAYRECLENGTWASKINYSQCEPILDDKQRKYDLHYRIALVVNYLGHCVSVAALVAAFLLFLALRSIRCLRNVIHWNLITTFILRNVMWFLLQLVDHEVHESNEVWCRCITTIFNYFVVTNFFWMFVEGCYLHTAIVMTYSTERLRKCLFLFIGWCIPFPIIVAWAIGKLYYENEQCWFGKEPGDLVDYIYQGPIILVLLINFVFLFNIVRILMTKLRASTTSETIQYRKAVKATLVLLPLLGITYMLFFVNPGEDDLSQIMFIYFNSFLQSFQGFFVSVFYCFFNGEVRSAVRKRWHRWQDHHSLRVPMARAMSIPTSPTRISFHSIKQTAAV
T1 sequence (P24387 whole entry): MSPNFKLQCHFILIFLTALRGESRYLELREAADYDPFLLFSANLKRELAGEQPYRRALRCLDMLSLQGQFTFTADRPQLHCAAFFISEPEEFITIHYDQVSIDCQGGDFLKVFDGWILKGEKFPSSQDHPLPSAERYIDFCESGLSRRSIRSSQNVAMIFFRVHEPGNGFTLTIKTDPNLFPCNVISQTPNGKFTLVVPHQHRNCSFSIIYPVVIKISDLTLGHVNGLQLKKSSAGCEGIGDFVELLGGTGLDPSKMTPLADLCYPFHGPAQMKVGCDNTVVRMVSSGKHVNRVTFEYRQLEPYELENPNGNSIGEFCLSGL

[4] = biological target: T1, Corticotropin-releasing factor receptor 2/Corticotropin-releasing factor-binding protein; test: activators of CRF receptor 2 with binding protein – uHTS hits, confirmation (AID 602473); type: functional; settings: read-out: EC50_Mean
[5] = Shn3 3'UTR reporter inhibitors, dose response, cell-based, Clone20 osteoblasts, firefly luciferase, cherry-picked (AID 624132); type: functional;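 note: firefly luciferase luminescence from reporter carrying the Shn3 3'UTR in osteoblasts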
[6] = biological target: T2, Ubiquitin-conjugating enzyme E2 N (Homo sapiens, UniProt P61088); type: functional;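 note: Dose-response confirmation in a TR-FRET assay detecting UBC13-driven polyubiquitin chain formation, inhibition measured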
T2 sequence (P61088 whole entry): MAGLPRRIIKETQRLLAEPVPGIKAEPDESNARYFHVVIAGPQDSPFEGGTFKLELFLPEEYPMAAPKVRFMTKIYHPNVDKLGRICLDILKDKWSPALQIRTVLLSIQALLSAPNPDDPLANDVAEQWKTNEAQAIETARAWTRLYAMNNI

[7] = cytotoxicity toward NIH3T3 fibroblasts, dose response, counter-screen, cell-based, ATP luminescence, mouse fibroblasts (AID 2010); type: functional;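 note: cells exposed to compound for about 90 hours before reading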
[8] = tested on: Streptococcus sp. 'group A'; test: growth inhibition of control SK(-) GAS strain, dose response, counter-screen for streptokinase expression inhibitor project, luminescence, kanamycin, BacTiterGlo, confirmation (AID 1900); type: functional, organism-based
Streptokinase A = biological target: T3, Streptokinase A (Streptococcus pyogenes serotype M1, UniProt P10520); test: S. pyogenes streptokinase expression inhibitors, potency, dose response, plasminogen activation absorbance, OD405 (AID 1914); type: functional, Streptococcus pyogenes M1 GAS;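 note: secreted streptokinase activity via plasminogen activation per viability signal from cell pellet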
T3 sequence (P10520 whole entry): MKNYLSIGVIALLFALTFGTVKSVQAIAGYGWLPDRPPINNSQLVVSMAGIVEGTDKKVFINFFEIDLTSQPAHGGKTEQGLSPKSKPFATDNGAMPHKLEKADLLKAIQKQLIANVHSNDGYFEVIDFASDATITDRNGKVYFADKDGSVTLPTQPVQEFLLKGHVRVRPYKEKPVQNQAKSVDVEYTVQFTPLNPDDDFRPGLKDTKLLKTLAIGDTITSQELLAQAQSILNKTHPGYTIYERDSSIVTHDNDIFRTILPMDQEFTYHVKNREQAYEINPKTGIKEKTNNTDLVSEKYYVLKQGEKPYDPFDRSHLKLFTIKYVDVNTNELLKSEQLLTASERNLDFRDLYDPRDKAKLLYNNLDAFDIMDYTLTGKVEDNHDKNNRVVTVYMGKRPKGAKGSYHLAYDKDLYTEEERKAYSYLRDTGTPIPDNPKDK

Streptococcus = test: Group A Streptococcus viability loss, dose response, counter-screen for streptokinase expression inhibitor project, luminescence, BacTiterGlo (AID 1915); type: functional, organism-based;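 note: potency for reduction of bacterial viability or growth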
[9] = inhibitors of intracellular T. cruzi replication, confirmation, NIH3T3 host cells, beta-gal luminescence (AID 2044); type: functional, cell-based;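 note: intracellular parasites grown in NIH/3T3 mouse fibroblasts as host cells; luminescent beta-galactosidase reporter signal from transgenic T. cruzi replicating inside host cells; inhibitors lower the luminescence signal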
[10] = biological target: FAD-linked sulfhydryl oxidase ALR (Homo sapiens, UniProt P55789); test: inhibitors of human ALR sulfhydryl oxidase, dose response, biochemical, H2O2 detection, luminescence, cherry-pick (AID 493248)
[11] = biological target: T4, Rac GTPase-activating protein 1 (Homo sapiens, UniProt Q9H0H5); test: MgcRacGAP GTPase-activating activity inhibitors, confirmation, biochemical, ADP Hunter fluorescence, primary and confirmatory (AID 624330); type: functional
T4 sequence (Q9H0H5 whole entry): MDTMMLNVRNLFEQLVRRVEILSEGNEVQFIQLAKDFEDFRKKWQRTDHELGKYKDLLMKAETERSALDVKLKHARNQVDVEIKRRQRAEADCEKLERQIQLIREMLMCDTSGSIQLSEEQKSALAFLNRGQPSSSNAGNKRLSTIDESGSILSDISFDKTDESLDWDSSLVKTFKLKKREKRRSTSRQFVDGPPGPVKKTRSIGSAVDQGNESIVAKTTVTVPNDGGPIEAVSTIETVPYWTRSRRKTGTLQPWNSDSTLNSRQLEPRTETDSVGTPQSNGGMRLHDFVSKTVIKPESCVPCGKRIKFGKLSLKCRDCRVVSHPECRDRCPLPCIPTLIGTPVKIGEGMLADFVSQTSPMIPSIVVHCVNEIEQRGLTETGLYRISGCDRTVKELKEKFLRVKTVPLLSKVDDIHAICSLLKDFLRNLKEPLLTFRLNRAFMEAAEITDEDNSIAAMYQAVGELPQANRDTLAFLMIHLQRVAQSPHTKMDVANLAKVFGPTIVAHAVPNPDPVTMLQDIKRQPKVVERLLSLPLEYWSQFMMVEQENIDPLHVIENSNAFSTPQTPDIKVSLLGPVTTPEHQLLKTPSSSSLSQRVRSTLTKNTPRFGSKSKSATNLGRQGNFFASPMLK

[12] = biological target: T5, Heat shock factor protein 1 (Mus musculus, UniProt P38532); test: HSF1 potentiators in luciferase reporter cells, confirmation, cell-based, NIH3T3, luminescence, dose retest (AID 435004); type: functional;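 note: stress induced by proteasome inhibitor MG132 added 30 min after compound; luciferase reporter driven by HSF1 response element in NIH3T3 cells; actives raise luminescence as potentiators of the MG132 stress response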
T5 sequence (P38532 whole entry): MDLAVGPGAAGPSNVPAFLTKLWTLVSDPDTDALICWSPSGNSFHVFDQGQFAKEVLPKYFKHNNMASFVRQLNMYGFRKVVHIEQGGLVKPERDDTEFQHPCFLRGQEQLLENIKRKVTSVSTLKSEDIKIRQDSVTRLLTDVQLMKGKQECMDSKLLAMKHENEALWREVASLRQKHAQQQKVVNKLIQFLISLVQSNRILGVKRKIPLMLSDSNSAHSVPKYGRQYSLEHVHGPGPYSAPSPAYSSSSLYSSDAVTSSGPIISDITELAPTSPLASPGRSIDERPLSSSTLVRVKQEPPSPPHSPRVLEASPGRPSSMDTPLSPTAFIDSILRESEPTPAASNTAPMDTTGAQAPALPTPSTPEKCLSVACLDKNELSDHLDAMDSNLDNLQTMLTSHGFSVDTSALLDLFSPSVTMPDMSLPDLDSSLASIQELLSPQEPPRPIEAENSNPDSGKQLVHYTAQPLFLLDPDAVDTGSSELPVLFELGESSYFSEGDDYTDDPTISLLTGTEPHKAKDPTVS

Large T antigen = Large T antigen (Simian virus 40, UniProt P03070); type: functional, Betapolyomavirus macacae;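 note: Confirmatory-stage PubChem screen for compounds that inhibit SV40 T antigen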
INS1 = test: beta cell apoptosis inhibitors, cytokine rescue, dose response, luminescence, retest (AID 449756); type: functional, cell-based; settings: Rattus norvegicus;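 note: cell death triggered by IL-1 beta plus TNF-alpha plus IFN-gamma mixture; protective hits raise ATP signal compared with cytokine alone wells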
H9c2 = test: cells; type: functional, cell-based; settings: Rattus norvegicus, H9c2, Myocardium;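 note: confirmatory concentration-response retest of ultra-high-throughput screening hits for modulation of myocardial damage; cell death induced by hydrogen peroxide oxidative stress; compound pretreatment for 60 min then peroxide exposure for 2 h; potency is for protecting the cells against peroxide damage rather than for killing them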
[13] = HEp-2 cell cytotoxicity, dose response, cytotoxicity control for RSV inhibitor project, HTS (AID 2410); type: functional; settings: human respiratory syncytial virus

Sequence of FAD-linked sulfhydryl oxidase ALR (P55789 whole entry): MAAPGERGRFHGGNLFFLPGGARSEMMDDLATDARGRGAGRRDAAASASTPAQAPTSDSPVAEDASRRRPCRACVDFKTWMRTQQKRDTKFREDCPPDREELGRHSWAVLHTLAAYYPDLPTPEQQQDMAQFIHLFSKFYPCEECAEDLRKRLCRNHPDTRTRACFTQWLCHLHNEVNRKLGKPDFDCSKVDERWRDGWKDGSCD
Sequence of Large T antigen (P03070 whole entry): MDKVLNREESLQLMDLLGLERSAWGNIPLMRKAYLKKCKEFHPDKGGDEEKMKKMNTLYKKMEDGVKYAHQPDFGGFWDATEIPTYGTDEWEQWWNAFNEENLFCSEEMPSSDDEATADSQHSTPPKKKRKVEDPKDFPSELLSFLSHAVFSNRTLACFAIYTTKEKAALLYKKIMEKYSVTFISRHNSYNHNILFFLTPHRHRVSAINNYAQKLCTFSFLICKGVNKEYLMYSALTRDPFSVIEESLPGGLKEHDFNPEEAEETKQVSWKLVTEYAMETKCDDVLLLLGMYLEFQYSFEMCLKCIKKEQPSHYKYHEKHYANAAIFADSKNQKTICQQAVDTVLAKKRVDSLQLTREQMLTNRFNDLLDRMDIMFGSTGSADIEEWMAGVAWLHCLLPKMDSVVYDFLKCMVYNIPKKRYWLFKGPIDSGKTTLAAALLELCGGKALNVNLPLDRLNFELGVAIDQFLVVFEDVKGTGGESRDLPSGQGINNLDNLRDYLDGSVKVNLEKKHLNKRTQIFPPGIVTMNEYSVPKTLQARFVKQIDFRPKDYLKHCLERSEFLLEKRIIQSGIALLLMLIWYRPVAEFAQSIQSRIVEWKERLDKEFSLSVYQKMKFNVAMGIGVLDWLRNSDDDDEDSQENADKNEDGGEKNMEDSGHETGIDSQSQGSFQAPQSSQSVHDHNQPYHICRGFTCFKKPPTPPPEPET

Cc1ccnc(-n2c(C)cc(/C=C3\C(=O)NC(=S)N(C)C3=O)c2C)c1
EC50 [1]: 65.8 µM (active) | EC50 [2]: 95.3 µM (active)

N#Cc1c(N)nc(SC2CCCCC2=O)c(C#N)c1-c1ccco1 (stereo unspecified)
IC50 [3]: < 0.368 µM (active) | EC50 [4]: > 53 µM (inactive)

Cc1ccc(C)c(S(=O)(=O)Nc2ccc(-n3cnnn3)cc2)c1
AC50 [5]: > 70 µM (inactive)

O=C(NCCCn1ccnc1)c1nn2c(C(F)(F)F)cc(-c3ccc(Br)cc3)nc2c1Cl
EC50 [1]: 33.2 µM (active) | EC50 [2]: 16.8 µM (active)

C=CCn1c(NC(=O)c2ccc(C)cc2)nc2ccccc21
IC50 [6]: > 20 µM (inactive) | EC50 [7]: > 60 µM (not active) | EC50 [8]: 84.6 µM (active) | EC50 (Streptokinase A): > 150 µM (not active) | EC50 (Streptococcus): > 150 µM (not active) | EC50 [9]: 2.11 µM (active)

O=C(CC(NC(=O)OCc1ccccc1)C(=O)OCc1ccccc1)OCc1ccccc1 (stereo unspecified)
IC50 [3]: > 47.1 µM (inactive) | EC50 [4]: > 53 µM (inactive)

Cc1c(OCC(=O)NCCN2CCOCC2)ccc2c3c(c(=O)oc12)CCC3
IC50 [3]: > 47.1 µM (inactive) | EC50 [4]: > 53 µM (inactive)

Cc1cccc2sc(N(CCN3CCOCC3)C(=O)CCS(=O)(=O)c3ccccc3)nc12
IC50 [6]: > 20 µM (inactive)

Cc1ccc(S(=O)(=O)N2CCCC(C(=O)NNCC(=O)Nc3cc(F)ccc3F)C2)cc1 (stereo unspecified)
IC50 [6]: > 20 µM (inactive)

Cc1ccc[n+](CC(=O)Nc2ccc(N(C)C)cc2)c1
AC50 [10]: 2.2 µM (active) | IC50 [11]: 113 µM (active)

Oc1ccc(N/C(S)=N/c2ccccc2)cc1
EC50 [12]: > 260 µM (inactive) | IC50 (Large T antigen): 5.61 µM (active) and 8.33 µM (active) | IC50 [11]: 32.9 µM (active)

Cc1nnc(NC(=O)CSc2nnc(Cc3ccccc3)n2-c2ccccc2)s1
IC50 [3]: > 47.1 µM (inactive) | EC50 [4]: > 53 µM (inactive)

Cn1cccc1Cc1nnc(SCC(=O)N2CCN(c3ccccc3)CC2)n1-c1ccc(F)cc1
IC50 [3]: > 47.1 µM (inactive) | EC50 [4]: > 53 µM (inactive)

COc1cc(/C=N/c2c(C)cc(C)cc2C)ccc1OC(C)=O
IC50 [3]: > 47.1 µM (inactive) | EC50 [4]: > 53 µM (inactive)

COc1cc(/C=N/NC(=O)C(C)n2nnc3ccccc32)ccc1O (stereo unspecified)
IC50 (Large T antigen): 19.8 µM (active) | AC50 [10]: 0.332 µM (active) | IC50 [11]: 25.5 µM (active)

Cc1ccc(C23CC4CC(CC(NC(=O)NCCN(C)C)(C4)C2)C3)cc1
EC50 [1]: 17.9 µM (active) | EC50 [2]: 20.9 µM (active) | EC50 [7]: > 60 µM (not active) | EC50 [9]: 0.948 µM (active)

Cc1cccc(OCC(O)CN2CCN(CCN3C(=O)c4cccc5cccc(c45)C3=O)CC2)c1C (stereo unspecified)
IC50 [6]: > 20 µM (inactive) | EC50 [7]: 8.54 µM (active) | EC50 [9]: 2.14 µM (active)

COc1ccccc1S(=O)(=O)N1CCn2cccc2C1C (stereo unspecified)
IC50 [3]: > 47.1 µM (inactive) | EC50 [4]: > 53 µM (inactive)

Sc1nnc(-c2[nH]nc3c2CCC3)n1/N=C/C=C/c1ccco1
IC50 (Large T antigen): 18.1 µM (active)

CC(=O)Cc1cc(O)c2ccccc2c1OC(=O)c1ccc(Br)cc1
AC50 (INS1): 14.9 µM (active) | IC50 [3]: > 47.1 µM (inactive) | EC50 [4]: > 53 µM (inactive)

Cc1ccc(OC(=O)CCC(=O)Oc2ccc(C)cc2C)c(C)c1
AC50 [5]: 3.51 µM (active)

Cc1ccc2nc(N=C(N)NC(=O)NC3CCCCC3)nc(C)c2c1
IC50 [6]: > 20 µM (inactive) | EC50 (Streptokinase A): 52.7 µM (active)

CCN(CC)S(=O)(=O)c1cc(C(=O)Nc2cc(Cl)ccc2N2CCN(C)CC2)ccc1Cl
EC50 [1]: 15.8 µM (active) | EC50 [2]: 13.3 µM (active)

CCCn1nc(C(=O)Nc2cc(S(=O)(=O)Nc3ccc(OC)cc3)ccc2O)c2ccccc2c1=O
IC50 [3]: > 47.1 µM (inactive) | EC50 [4]: > 53 µM (inactive)

CC(=O)Oc1ccc(C(=O)OCC(=O)c2c(N)n(C)c(=O)n(C)c2=O)cc1OC(C)=O
IC50 (H9c2): 6.29 µM (active) | IC50 (Large T antigen): 8.56 µM (active)

CNCC(O)c1cc(OCc2ccccc2)c(OCc2ccccc2)cc1F (stereo unspecified)
IC50 [6]: > 20 µM (inactive) | CC50 [13]: 22.3 µM (active)

N#C/C(=C\c1cccn1-c1ccccc1)C(=O)NC1CCCCC1
IC50 [3]: > 47.1 µM (inactive) | EC50 [4]: > 53 µM (inactive)

OC1=C(/C=N/c2ccc(O)cc2)CCCC1
IC50 (Large T antigen): 6.66 µM (active) | IC50 [11]: 12.5 µM (active)

COc1ccccc1NC(=O)c1c(/N=C/c2c(O)ccc3ccccc23)cnn1C
IC50 [6]: > 20 µM (inactive)

CC(=O)N1CCC2(CC1)NC(=O)N(c1ccccc1)N2
EC50 [12]: 136 µM (active) | AC50 [10]: 5 µM (active)

CN(C)c1ccc(NS(=O)(=O)c2ccc(Cl)cc2)cc1
IC50 (Large T antigen): 11.7 µM (active) | IC50 [11]: 30.6 µM (active)
